{"source": "paper PMC4591660", "about": "(Toxins, 2015)", "key": {"Kv1.3": {"test_system": "Kv1.3", "set-up": "method as in PMID 11173083, PMID 10565809", "conditions": "ref [37],[38]; cited from earlier work"}, "TRPV1 KO mice": {"test_system": "TRPV1 KO mice", "format": "in vivo", "conditions": "500 µM, 10 μL intraplantar, left hind paw; 30 min recording; n = 10; vs saline", "procedure": "(§1) Mice, C57BL/6J, were used as wild type (WT) in these experiments. TRPV1-KO mice were purchased from Model Animal Research Center of Nanjing University, China. All the experiments using animals were carried out in accordance with recommendations in the Guide for the Care and Use of Laboratory Animals of Kunming Institute of Zoology, Chinese Academy of Sciences. Experimental protocols using animals in this work were approved by the Institutional Animal Care and Use Committees at Kunming Institute of Zoology, Chinese Academy of Sciences (2014-204). All efforts were made to reduce the number of animals used and to minimize the suffering of animals.\n(§2) Control mice were injected with the same volume of saline. Immediately after injection, the time of paw licking was recorded by digital video camera for 30 min.\n(§3) Experimental data of electrophysiological recordings were acquired and analyzed by using the Pulse program and Igor Pro. The data obtained in experiments involving animals were analyzed by GraphPad Prism 5 (GraphPad Software, Inc., San Diego, CA, USA). All of the data points are shown as the means ± S.E. n is presented as the number of experiments. Statistical analysis was carried out by Student’s t test, and * indicated a significant difference (p < 0.01)."}, "WT mice": {"test_system": "WT mice", "format": "in vivo, C57BL/6J", "conditions": "10 μL intraplantar, left hind paw, 30 min recording, n = 10; for pain behavior (duration of paw licking/biting): 500 µM, vs saline; for pain behavior (paw licking), dose-response: different doses", "procedure": "as §1, §2, §3"}, "Kv1.1": {"test_system": "Kv1.1", "set-up": "method as in PMID 11173083, PMID 10565809", "conditions": "ref [37],[38]; cited from earlier work"}, "mTRPV1": {"molecular_target": "T1, mTRPV1 (Mus musculus, UniProt Q704Y3)", "T1 construct": "expressed in transfected cells; host or cells: HEK293T", "T1 sequence (Q704Y3 whole entry)": "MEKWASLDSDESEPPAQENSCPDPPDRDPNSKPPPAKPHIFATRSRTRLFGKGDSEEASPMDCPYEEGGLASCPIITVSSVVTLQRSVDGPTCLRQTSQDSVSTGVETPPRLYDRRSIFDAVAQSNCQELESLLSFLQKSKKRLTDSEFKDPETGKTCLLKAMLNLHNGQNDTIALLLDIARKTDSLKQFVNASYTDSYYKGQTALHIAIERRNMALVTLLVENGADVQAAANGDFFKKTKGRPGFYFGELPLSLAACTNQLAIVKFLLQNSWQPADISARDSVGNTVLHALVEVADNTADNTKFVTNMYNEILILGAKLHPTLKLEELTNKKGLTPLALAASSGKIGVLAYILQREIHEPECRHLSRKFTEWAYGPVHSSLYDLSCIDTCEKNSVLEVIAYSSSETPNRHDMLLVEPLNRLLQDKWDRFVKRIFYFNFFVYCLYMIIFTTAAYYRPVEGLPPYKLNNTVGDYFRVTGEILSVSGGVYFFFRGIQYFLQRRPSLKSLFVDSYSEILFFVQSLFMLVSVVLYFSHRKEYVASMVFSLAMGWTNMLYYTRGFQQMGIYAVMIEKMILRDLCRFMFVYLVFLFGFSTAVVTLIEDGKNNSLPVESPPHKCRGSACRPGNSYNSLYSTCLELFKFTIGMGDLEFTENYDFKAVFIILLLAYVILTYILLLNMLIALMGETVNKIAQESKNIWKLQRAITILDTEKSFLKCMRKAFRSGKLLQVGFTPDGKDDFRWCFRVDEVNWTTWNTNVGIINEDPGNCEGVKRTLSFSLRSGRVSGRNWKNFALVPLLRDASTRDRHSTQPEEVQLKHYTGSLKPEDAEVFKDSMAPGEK", "format": "cell-based", "procedure": "(§4) Thus, electrophysiological tests on transient transfected TRPV1 were performed. […] To our knowledge, HEK293T cells have been reported to endogenously express acid-sensing ion channels (ASICs).\n(§5) All patch clamp recordings were carried out at temperature 20 °C using an EPC-10 amplifier (HEKA Electronik, Lambrecht, Germany) according to the previous report. Recording pipettes were made from borosilicate glass capillary tubing, and their resistances were 3–5 MΩ when filled with internal solution. For mKv1.1 and mKv1.3 current recordings, the cells were held at −80 mV for 5 min after the whole-cell construction was established. All of the potassium current traces were elicited by a 300-ms depolarizing potential of 0 mV from a holding potential of −80 mV. The standard pipette solution contained (in mM): 140 KF, 4 MgCl2, 5 ATP-Na, 1 EGTA, and 10 HEPES, pH 7.3. The standard bath solution contained (in mM): 137 NaCl, 5.9 KCl, 2.2 CaCl2, 1.2 MgCl2, 14 glucose, and 10 HEPES, pH 7.3. For mice TRPV1 channel recordings, the pipette and bathing solution contained (in mM): 130 NaCl, 0.2 EDTA, and 3 HEPES, pH 7.2.\nas §3"}, "native HEK293T cells": {"test_system": "native HEK293T cells", "format": "cell-based", "conditions": "negative for TRPV1, 20 °C, endogenous ASICs", "procedure": "as §4, §5, §3"}, "DRG neurons of WT mice": {"test_system": "DRG neurons of WT mice", "format": "cell-based, mouse", "conditions": "10 µM; DRG neurons 20 µm ≤ cell ≤ 35 µm; 20 °C", "procedure": "(§6) DRG neurons from WT or TRPV1 KO mice were acutely dissociated and maintained in short-term primary culture as previously described. DRGs were incubated in 5% CO2/95% air at 37 °C for 1–4 h prior to patch-clamp experiments. HEK293T cells were used for mKv1.1 or mKv1.3 expression. Cells were grown under standard tissue culture conditions (5% CO2, 37 °C) in DMEM supplemented with 10% fetal bovine serum. Cells were transfected with DNA mixture (channel constructs and a green fluorescent protein (GFP) reporter plasmid) using lipofectamine 2000 transfection reagent (Invitrogen, Carlsbad, CA, USA) following the manufacturer’s instructions and used for electrophysiology 24–48 h after transfection. Cells with GFP fluorescence were selected for patch-clamp recordings […] after transfection.\nas §5\nas §3, with “Statistical analysis was carried out by Student’s t test, and * indicated a significant difference (p < 0.01).” left out"}, "[1]": {"test_system": "DRG neurons of TRPV1 KO mice", "format": "cell-based, mouse", "procedure": "as §6, §5\nas §3, with “Statistical analysis was carried out by Student’s t test, and * indicated a significant difference (p < 0.01).” left out"}, "TRPV1": {"test_system": "TRPV1", "conditions": "cited from earlier work"}}, "note": "Entries after “also recorded” stand apart in the source; their conditions may differ. Where two headings read alike, the source gives them in different places.", "data": [{"compound": "kaliotoxin", "values": [{"measurement": "inhibition of Kv1.3", "setting": "Kv1.3", "value": "potent inhibitor of Kv1.1 and Kv1.3"}, {"measurement": "pain behavior (duration of paw licking/biting)", "setting": "TRPV1 KO mice", "value": "only crude venom induced pain"}, {"measurement": "pain behavior (duration of paw licking/biting)", "setting": "WT mice", "value": "unable to induce pain"}, {"measurement": "pain behavior (paw licking), dose-response", "setting": "WT mice", "value": "did not induce pain"}, {"measurement": "pain behavior (paw licking), dose-response", "setting": "WT mice; listed as Kaliotoxin", "value": "showed no significant pain behavior"}, {"measurement": "inhibition of Kv1.1", "setting": "Kv1.1", "value": "potent inhibitor of Kv1.1 and Kv1.3"}]}, {"compound": "NCCOB(c1ccccc1)c1ccccc1", "note": "[2APB]", "values": [{"measurement": "activation of TRPV1 (comparator agonists)", "setting": "mTRPV1; HEK293T expressing mTRPV1, concentration not given, 20 °C", "value": "potently activated TRPV1"}]}, {"compound": "COc1cc(CNC(=O)CCCC/C=C/C(C)C)ccc1O", "note": "[capsaicin]", "values": [{"measurement": "activation of TRPV1 (comparator agonists)", "setting": "mTRPV1", "value": "potently activated TRPV1"}, {"measurement": "evoked currents in TRPV1-expressed HEK293T cells, ramp method", "setting": "mTRPV1", "value": "evoked the currents in HEK293T cells with over-expressed TRPV1 channels"}, {"measurement": "evoked currents in native HEK293T cells, ramp method", "setting": "native HEK293T cells", "value": "did not evoke the currents"}, {"measurement": "evoked currents on DRG neurons (WT)", "setting": "DRG neurons of WT mice", "value": "effectively evoked the currents in DRG neurons of WT; also recorded: evoked the currents on DRG sensory neurons of WT mice"}, {"measurement": "normalized evoked currents, TRPV1 KO compared with WT DRG neurons", "setting": "[1]", "value": "significantly higher in WT than TRPV1 KO mice; also recorded: significantly lower in TRPV1 KO mice than in WT mice"}, {"measurement": "evoked currents on DRG neurons (TRPV1 KO)", "setting": "[1]; 10 µM, DRG neurons 20 µm ≤ cell ≤ 35 µm, 20 °C", "value": "not TRPV1 KO mice; also recorded: did not evoke currents"}, {"measurement": "agonism on TRPV1", "setting": "TRPV1", "value": "well-known agonist of TRPV1"}, {"measurement": "pain behavior (duration of paw licking/biting)", "setting": "WT mice", "value": "induced pain in WT mice"}, {"measurement": "pain behavior (paw licking), dose-response", "setting": "WT mice", "value": "induced acute pain in a dose dependent manner"}]}]}
